US20130252286A1, “TRANSFORMANT OF YEAST OF GENUS SCHIZOSACCHAROMYCES, AND METHOD FOR PRODUCING SAME” (ASAHI GLASS COMPANY, LIMITED, priority 2010, published 2013)

B1: AaBGL1: β-glucosidase 1 of Aspergillus aculeatus F-50 secreted by S. pombe ASP3326 strain, crude enzyme after ammonium sulfate and ultrafiltration (protein, listed as Aspergillus aculeatus)
chain: DELAFSPPFYPSPWANGQGEWAEAYQRAVAIVSQMTLDEKVNLTTGTGWELEKCVGQTGGVPRLNIGGMCLQDSPLGIRDSDYNSAFPAGVNVAATWDKNLAYLRGQAMGQEFSDKGIDVQLGPAAGPLGRSPDGGRNWEGFSPDPALTGVLFAETIKGIQDAGVVATAKHYILNEQEHFRQVAEAAGYGFNISDTISSNVDDKTIHEMYLWPFADAVRAGVGAIMCSYNQINNSYGCQNSYTLNKLLKAELGFQGFVMSDWGAHHSGVGSALAGLDMSMPGDITFDSATSFWGTNLTIAVLNGTVPQWRVDDMAVRIMAAYYKVGRDRLYQPPNFSSWTRDEYGFKYFYPQEGPYEKVNHFVNVQRNHSEVIRKLGADSTVLLKNNNALPLTGKERKVAILGEDAGSNSYGANGCSDRGCDNGTLAMAWGSGTAEFPYLVTPEQAIQAEVLKHKGSVYAITDNWALSQVETLAKQASVSLVFVNSDAGEGYISVDGNEGDRNNLTLWKNGDNLIKAAANNCNNTIVVIHSVGPVLVDEWYDHPNVTAILWAGLPGQESGNSLADVLYGRVNPGAKSPFTWGKTREAYGDYLVRELNNGNGAPQDDFSEGVFIDYRGFDKRNETPIYEFGHGLSYTTFNYSGLHIQVLNASSNAQVATETGAAPTFGQVGNASDYVYPEGLTRISKFIYPWLNSTDLKASSGDPYYGVDTAEHVPEGATDGSPQPVLPAGGGSGGNPRLYDELIRVSVTVKNTGRVAGDAVPQLYVSLGGPNEPKVVLRKFDRLTLKPSEETVWTTTLTRRDLSNWDVAAQDWVITSYPKKVHVGSSSRQLPLHAALPKVQ

What was measured:
[1] = biological target: T1, crude AaBGL1 (Aspergillus aculeatus, UniProt P48825); assay: Substrate specificity; assay type: biochemical; parameters: P3 secretion signal (N, cleaved yes); made in house; host or cells: Schizosaccharomyces pombe ASP3326 strain (transformed with pSL6P3AaBGL1); culture supernatant, ammonium sulfate treatment and ultrafiltration, crude enzyme; settings: 0.5% (w/v) ICOS, 0.5% (w/v) cellobiose, 1 mM pNPG, 1 mM pNP-cellobiose; for Specific activity: pH 4.5, 37° C., 10 minutes; for Relative activity: relative to cellobiose
Procedure: Measured in accordance with the activity measurement method by using various substrates. The specific activities and relative activities of the enzyme to each of 0.5% (w/v) ICOS, 0.5% (w/v) cellobiose, 1 mM pNPG, and 1 mM pNP-cellobiose are shown in Table 6.
To 100 μl of 2 mM p-nitrophenyl-β-D-cellobioside (hereinafter referred to as pNP-cellobiose), 10 μl of 1 M sodium acetate buffer solution (pH 4.5) and 40 μl of water were added, followed by addition of 50 μl of the diluted enzyme sample to cultivate for 10 minutes at 37° C. 100 μl of the reaction mixture was mixed with 100 μl of 2% sodium carbonate solution to terminate reaction, and then the amount of liberated p-nitrophenol was colorimetrically measured at a wavelength of 450 nm.
The amount of enzyme that produces 1 μmol of p-nitrophenol per minute was defined as 1 U.
(§1) To 100 μl of 1% cellobiose solution, 10 μl of 1M sodium acetate buffer solution (pH 4.5) was added, followed by addition of 90 μl of the diluted enzyme sample to cultivate for 10 minutes at 37° C. 50 μl of 1N HCl was added to terminate reaction, and then 50 μl of a neutralizing solution comprised of 1M Tris solution:2N sodium hydroxide solution in a ratio of 4:1 was added for neutralization to measure the amount of glucose in the mixture by using glucostat method (Glucose kit, Glucose CII-Test Wako, manufactured by Wako Pure Chemical Industries).
The amount of enzyme that produces 1 μmol of glucose per minute was defined as 1 U.
as §1, with “insoluble cellooligosaccharide (hereinafter referred to as ICOS)” for “cellobiose”

[2] = biological target: T1, crude AaBGL1; assay: Inhibition by various sugar; assay type: biochemical; parameters: P3 secretion signal (N, cleaved yes); made in house; culture supernatant, ammonium sulfate treatment and ultrafiltration, crude enzyme; settings: 1 mM pNPG; for inhibition of crude AaBGL1 by the sugar (in words): 0.1 to 10 mM sugar
Procedure: To 10 μl of 20 mM p-nitrophenyl-β-D-glucoside (hereinafter abbreviated as pNPG), 10 μl of 1M sodium acetate buffer solution (pH 4.5) and 130 μl of water were added, and then 50 μl of the diluted enzyme sample was introduced for reacting them at 37° C. for 10 minutes. 100 μl of the reaction mixture was mixed with 100 μl of 2% sodium carbonate solution to terminate reaction, and then the amount of liberated p-nitrophenol was colorimetrically measured at a wavelength of 450 nm.
By using 1 mM pNPG containing various sugar (0.1 mM, 1.0 mM, 10 mM) as a substrate, the enzyme was reacted in accordance with the activity measurement method. The numerical values shown in Table 5 indicate the ratio (%) of the measured enzymatic activity to the enzymatic activity under a condition where no sugar is contained.

[3] = Thermostability test; assay type: physicochemical; settings: crude enzyme, treated at each temperature for 10 minutes
Procedure: The enzyme was treated at each temperature for 10 minutes, and then reacted by using 1 mM pNPG as a substrate and 50 mM acetate buffer solution (pH 4.5). […] (FIG. 5).
With regard to the each culture supernatant, the thermostability test was carried out in accordance with the thermostability measurement method described in Test Example 7 at a temperature of from 50 to 75° C.
With regard to the each purified sample, the thermostability test was carried out in accordance with the thermostability measurement method described in Test Example 7 at a temperature of from 50 to 75° C.

[4] = Optimal temperature test of the crude enzyme; assay type: biochemical; settings: 1 mM pNPG, 50 mM acetate buffer pH 4.5, 10 minutes
Procedure: By using 1 mM pNPG as a substrate and 50 mM acetate buffer solution (pH 4.5), the enzyme was reacted for 10 minutes at each temperature. […] (FIG. 3).

[5] = Glucose inhibition test; assay type: biochemical; settings: 1 mM pNPG
Procedure: With regard to glucose inhibition, the crude enzyme obtained in Test Example 6 was compared with a commercially available β-glucosidase Novozyme 188 (manufactured by Novozymes). The glucose inhibition activity was measured in accordance with the activity measurement method by using 1 mM pNPG as a substrate and adding glucose to the reaction mixture in a concentration of from 0 to 100 mM. The reaction temperature was 37° C., the pH was 4.5, and the reaction time was 10 minutes. The other reaction conditions were the same as in the activity measurement method described in Test Example 4.
With regard to the each culture supernatant, the glucose inhibition activity was measured in accordance with the activity measurement method, by using 1 mM pNPG as a substrate and adding from 0 to 100 mM of glucose to the reaction mixture.

Molecule	inhibition of crude AaBGL1 by the sugar (in words) [2]	ratio of enzymatic activity to activity without sugar ([2]; sugar concentration 0.1 mM) [%]	ratio of enzymatic activity to activity without sugar ([2]; sugar concentration 1.0 mM) [%]	ratio of enzymatic activity to activity without sugar ([2]; sugar concentration 10 mM) [%]	other results
O=C[C@H](O)[C@@H](O)[C@H](O[C@@H]1O[C@H](CO)[C@@H](O)[C@H](O)[C@H]1O)[C@H](O)CO [Cellobiose]	–	–	–	–	Specific activity [1]: 42.1 U/mg; Relative activity [1]: 100%
O=C(CO)[C@@H](O)[C@H](O)[C@H](O)CO [Fructose]	not substantially inhibited	99	106	115	–
O=C[C@H](O)[C@@H](O)[C@@H](O)[C@H](O)CO [Galactose]	not substantially inhibited	97	98	101	–
OC[C@H]1O[C@@H](O[C@H]2[C@H](O)[C@@H](O)C(O)O[C@@H]2CO)[C@H](O)[C@@H](O)[C@H]1O (stereo partly drawn) [Lactose]	not substantially inhibited	99	100	100	–
OC[C@H]1O[C@H](O[C@H]2[C@H](O)[C@@H](O)[C@H](O)O[C@@H]2CO)[C@H](O)[C@@H](O)[C@@H]1O [Maltose]	inhibited	99	93	68	–
OC[C@@H](O)[C@@H](O)[C@H](O)[C@@H](O)CO [Sorbitol]	not substantially inhibited	98	99	101	–
OC[C@H]1O[C@@](CO)(O[C@H]2O[C@H](CO)[C@@H](O)[C@H](O)[C@H]2O)[C@@H](O)[C@@H]1O [Sucrose]	not substantially inhibited	96	99	98	–
O=C[C@H](O)[C@@H](O)[C@H](O)CO [Xylose]	not substantially inhibited	98	99	100	–
O=[N+]([O-])c1ccc(O[C@@H]2O[C@H](CO)[C@@H](O[C@@H]3O[C@H](CO)[C@@H](O)[C@H](O)[C@H]3O)[C@H](O)[C@H]2O)cc1 [pNP-cellobiose, p-nitrophenyl-β-D-cellobioside]	–	–	–	–	Specific activity [1]: 9.3 U/mg; Relative activity [1]: 22%
O=[N+]([O-])c1ccc(O[C@@H]2O[C@H](CO)[C@@H](O)[C@H](O)[C@H]2O)cc1 [pNPG, p-nitrophenyl-β-D-glucoside]	–	–	–	–	Specific activity [1]: 25.7 U/mg; Relative activity [1]: 61%
B1	–	–	–	–	thermostability: stable until [3]: about 60 °C; optimal temperature [4]: about 65 °C; resistance to glucose inhibition (comparison in words) ([5]; glucose 0 to 100 mM): more resistant to glucose inhibition than Novozyme 188; IC50 ([5]; glucose 0 to 100 mM, 37° C., pH 4.5, 10 minutes, read-out: glucose concentration (I50 value) at which 50% inhibition of the enzymatic activity occurs): 25 mM; activity maintained in the presence of glucose ([5]; 20 mM of glucose added): at least 50%
